Measured values from patent US20020115728A1, “Compositions and methods for treating cardiovascular disorders” (priority 2000, published 2002).

Legend:
Assay type in all cases: in vivo
[1] = test system: plasma lipids obtained from apoE−/− mice; assay: Ex vivo oxidizability of plasma lipids (aqueous peroxyl radical generator); conditions: pooled plasma of probucol-treated apoE−/− mice, 5 mM MPH, 37° C.
Protocol: Pooled plasma obtained from control (open symbols) or probucol-treated (closed symbols) mice was exposed to 5 mM of the aqueous peroxyl radical generator MPH and incubated under air at 37° C. […] Data shown are mean±SD of a single oxidation experiment performed in triplicate using pooled plasma. Where error bars are not shown, error is smaller than the symbol.
(§1) Plasma was obtained from control and probucol mice and aliquots frozen for subsequent determination of lipids. Separate aliquots were acidified with metaphosphoric acid (5%) to stabilize vitamin C prior to freezing and storage at −80° C. The remainder was pooled appropriately and used for ex vivo oxidation initiated by the peroxyl radical generator AAPH and lipoprotein separation by FPLC with UV280nm detection, as described in J Lipid Res. 1999;40:1104-1112.
Enhanced resistance of plasma lipoproteins to oxidation is often used as a measure of antioxidant efficacy. Therefore, we examined MPH-induced oxidation of pooled plasma from control and treated animals. […] These observations can be explained readily on the basis of tocopherol-mediated peroxidation.

[2] = test system: plasma lipoproteins of apoE−/− mice; assay: Lipids and antioxidants in lipoprotein fractions (size exclusion FPLC of pooled plasma); set-up: VLDL C / VLDL C18:2 / VLDL -TOH / VLDL Total CoQ / LDL C / LDL C18:2 / LDL -TOH / LDL Total CoQ / HDL C / HDL C18:2 / HDL -TOH / HDL Total CoQ: unit not given here; conditions: 24 weeks
Protocol: as §1
Two consecutive separations each employing 300 μL undiluted plasma were carried out. The corresponding eluents from both injections were collected, pooled according to fractions corresponding to very low-density lipoprotein (VLDL), LDL, and HDL plus mouse serum albumin (see FIG. 3) and then extracted and analysed for lipids and antioxidants.

[3] = test system: cholesterol-fed, ballooned New Zealand White rabbits; assay: Atherosclerosis/restenosis and lipid oxidation in cholesterol-fed, ballooned rabbits; conditions: 2% cholesterol diet with 1% probucol, 6 weeks
Protocol: Aortic endothelial denudation was performed at week 3 by withdrawing an inflated 3F Fogarty balloon embolectomy catheter three times down the length of the aorta. Plasma was obtained from animals as described in Example 1 at the start and end of the study. At the end of the study period, individual aortas were removed and prepared for HPLC analysis as in Example 1. Lipids and antioxidants including probucol and its metabolites, bisphenol and diphenoquinone, were analyzed by RP-HPLC as described previously. Aortas designated for histology were perfusion-fixed with 4% (v/v) formaldehyde and transferred into formalin. Cross-sections (2-3 μm thick) were prepared and stained with Weigert's hematoxylin-van Gieson, and the intima to media ratio determined for three sections.

[4] = test system: atherosclerotic lesions in apoE−/− mice; assay: Atherosclerotic lesion cross-section areas at four aortic sites (morphometry)
Protocol: Male C57BL/6J mice, homozygous for the disrupted apoE gene (apoE−/−) were fed standard chow (Lab-Feed, Sydney, Australia) until aged 10 weeks. […] The high fat diet (control and probucol-supplemented) was prepared, according to the specifications of the Harlan Teklad diet TD88137. […]
Lesions were assessed at four different sites along the aorta, in the aortic root, in the aortic arch, the descending thoracic and in the proximal abdominal aorta, and cross-sections (2-3 μm thick) were prepared and stained with Weigert's hematoxylin-van Gieson.

[5] = apoE−/− mice, 1% probucol, 24 weeks

CC(C)(Sc1cc(C(C)(C)C)c(O)c(C(C)(C)C)c1)Sc1cc(C(C)(C)C)c(O)c(C(C)(C)C)c1 [Probucol, probucol]
fate of the compound present in plasma during the oxidation period [1]: remained unchanged
onset and initial rate of CE-O(O)H accumulation vs control plasma ([1]; air): delayed and decreased
HDL -TOH ([2]; HDL fraction, 1% probucol): 1.4
HDL C ([2]; HDL fraction, 1% probucol): 0.12
HDL C18:2 ([2]; HDL fraction, 1% probucol): 531
HDL C20:4 ([2]; HDL fraction, 1% probucol): 24.0
HDL Total CoQ ([2]; HDL fraction, 1% probucol): 0.1
LDL -TOH ([2]; LDL fraction, 1% probucol): 7.8
LDL C ([2]; LDL fraction, 1% probucol): 0.96
LDL C18:2 ([2]; LDL fraction, 1% probucol): 388
LDL C20:4 ([2]; LDL fraction, 1% probucol): 50.4
LDL Total CoQ ([2]; LDL fraction, 1% probucol): 0.4
VLDL -TOH ([2]; VLDL fraction, 1% probucol): 0.56
VLDL C18:2 ([2]; VLDL fraction, 1% probucol): 340
VLDL C20:4 ([2]; VLDL fraction, 1% probucol): 17.5
VLDL Total CoQ ([2]; VLDL fraction, 1% probucol): 0.1
VLDL C ([2]; VLDL fraction, pooled plasma, 1% w/w probucol): 0.65
content of C in VLDL, % of the control value ([2]; VLDL of pooled plasma, 1% probucol): 25%
content of plasma and aortic lipids and absolute amounts of oxidized lipids [3]: significantly decreased
proportion of aortic lipids that was oxidized [3]: not affected
effect on atherosclerosis ([3]; aortic denudation at week 3): significantly decreased
lesion formation at the abdominal aorta [4, 5]: effectively prevented lesion formation
lesions in the aortic arch and descending thoracic aorta vs control [4, 5]: significantly smaller
lesion cross-section area, Aortic Root ([4]; apoE−/− mice, high fat diet with 1% (w/w) probucol, 24 weeks, aortic root): 1180 μm^2 × 10^−3
lesion cross-section area, Abdominal Aorta ([4]; apoE−/− mice, high fat diet with 1% probucol, 24 weeks, abdominal aorta): 12 ± 12(3) μm^2 × 10^−3
lesion cross-section area, Arch ([4]; apoE−/− mice, high fat diet with 1% probucol, 24 weeks, aortic arch): 140 ± 34 μm^2 × 10^−3
lesion cross-section area, Descending Thoracic Aorta ([4]; apoE−/− mice, high fat diet with 1% probucol, 24 weeks, descending thoracic aorta): *5 ± 4 (8)* μm^2 × 10^−3
Treatment effect on lesion area, Abdominal Aorta ([4]; probucol vs controls, abdominal aorta): 10%
Treatment effect on lesion area, Arch ([4]; probucol vs controls, aortic arch): 44%
Treatment effect on lesion area, Aortic Root ([4]; probucol vs controls, aortic root): 146%
Treatment effect on lesion area, Descending Thoracic Aorta ([4]; probucol vs controls, descending thoracic aorta): 15%

CC(C)(C)c1cc(-c2cc(C(C)(C)C)c(O)c(C(C)(C)C)c2)cc(C(C)(C)C)c1O [Bisphenol, bisphenol]
fate of the compound present in plasma during the oxidation period [1]: oxidised into diphenoquinone
